Measured values: article PMC11785709, “Angelica gigas Nakai (Korean Dang-gui) Root Alcoholic Extracts in Health Promotion and Disease Therapy – active Phytochemicals and In Vivo Molecular Targets” (Pharmaceutical Research, 2025)
Values joined by “and” are separate entries in the source; they are usually repeats but may differ in a detail not shown here. Equal values may be shown once.

Key:
Experiment in all cases: Reaction Biology kinase activity inhibition
Assay type in all cases: biochemical
Settings in all cases: initial screening
[1] = target: T1, MKK7 (MAPK9) (Homo sapiens, UniProt O14733)
T1 construct: purchased Reaction Biology
T1 sequence (O14733 2-419 limits assumed): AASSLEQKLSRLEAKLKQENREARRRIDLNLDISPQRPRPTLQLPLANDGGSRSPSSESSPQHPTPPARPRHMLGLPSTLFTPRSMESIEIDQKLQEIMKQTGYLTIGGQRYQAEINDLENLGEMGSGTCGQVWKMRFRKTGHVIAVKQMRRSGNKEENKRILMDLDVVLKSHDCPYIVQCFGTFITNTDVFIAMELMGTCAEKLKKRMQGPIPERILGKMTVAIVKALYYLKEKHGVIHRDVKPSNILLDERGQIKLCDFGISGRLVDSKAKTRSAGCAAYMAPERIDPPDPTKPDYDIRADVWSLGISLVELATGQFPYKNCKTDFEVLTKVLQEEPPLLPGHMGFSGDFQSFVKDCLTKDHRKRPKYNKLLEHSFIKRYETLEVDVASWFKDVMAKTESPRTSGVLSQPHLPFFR
Description: (§1) The second screening was the Reaction Biology® (Malvern, PA) kinase activity inhibition tests, which screened for more than 600 protein kinases and lipid kinases, using miniaturized radioisotope-based assay platform with γ-^33P-ATP, followed by confirmation with IC50 kinase profiling service with 5 concentrations of test compound (i.e., DOH and DA) with curve fitting.

[2] = target: T2, LRRK2 (G2019S) (Homo sapiens, UniProt Q5S007, G2019S)
T2 construct: purchased Reaction Biology
Description: as §1

[3] = target: T3, MELK (Homo sapiens, UniProt Q14680)
T3 construct: purchased Reaction Biology
Description: as §1

[4] = target: T4, CK2a (Homo sapiens, UniProt P68400)
T4 construct: purchased Reaction Biology
Description: as §1

[5] = target: T5, IRAK1 (Homo sapiens, UniProt P51617)
T5 construct: purchased Reaction Biology
Description: as §1

[6] = target: T6, CDK7/cyclin H (Homo sapiens, UniProt P50613)
T6 construct: purchased Reaction Biology
Description: as §1

[7] = target: T7, c-Kit (D816H) (Homo sapiens, UniProt P10721, D816H)
T7 construct: purchased Reaction Biology
Description: as §1

[8] = target: T8, CAMK1d (Homo sapiens, UniProt Q8IU85)
T8 construct: purchased Reaction Biology
Description: as §1

[9] = target: T9, PKCtheta (Homo sapiens, UniProt Q04759)
T9 construct: purchased Reaction Biology
Description: as §1

[10] = target: T10, Aurora B (Homo sapiens, UniProt Q96GD4)
T10 construct: purchased Reaction Biology
Description: as §1

[11] = tested on: PKN1-TECR (Tex1Pex10)
Description: as §1

[12] = target: T11, CLK4 (Homo sapiens, UniProt Q9HAZ1)
T11 construct: purchased Reaction Biology
Description: as §1

[13] = target: T12, CDK3/cyclin E (Homo sapiens, UniProt Q00526)
T12 construct: purchased Reaction Biology
Description: as §1

[14] = target: T13, FGR (Homo sapiens, UniProt P09769)
T13 construct: purchased Reaction Biology
Description: as §1

[15] = target: T14, PKCzeta (Homo sapiens, UniProt Q05513)
T14 construct: purchased Reaction Biology
Description: as §1

[16] = target: T15, BRSK1 (Homo sapiens, UniProt Q8TDC3)
T15 construct: purchased Reaction Biology
T15 sequence (Q8TDC3 1-778): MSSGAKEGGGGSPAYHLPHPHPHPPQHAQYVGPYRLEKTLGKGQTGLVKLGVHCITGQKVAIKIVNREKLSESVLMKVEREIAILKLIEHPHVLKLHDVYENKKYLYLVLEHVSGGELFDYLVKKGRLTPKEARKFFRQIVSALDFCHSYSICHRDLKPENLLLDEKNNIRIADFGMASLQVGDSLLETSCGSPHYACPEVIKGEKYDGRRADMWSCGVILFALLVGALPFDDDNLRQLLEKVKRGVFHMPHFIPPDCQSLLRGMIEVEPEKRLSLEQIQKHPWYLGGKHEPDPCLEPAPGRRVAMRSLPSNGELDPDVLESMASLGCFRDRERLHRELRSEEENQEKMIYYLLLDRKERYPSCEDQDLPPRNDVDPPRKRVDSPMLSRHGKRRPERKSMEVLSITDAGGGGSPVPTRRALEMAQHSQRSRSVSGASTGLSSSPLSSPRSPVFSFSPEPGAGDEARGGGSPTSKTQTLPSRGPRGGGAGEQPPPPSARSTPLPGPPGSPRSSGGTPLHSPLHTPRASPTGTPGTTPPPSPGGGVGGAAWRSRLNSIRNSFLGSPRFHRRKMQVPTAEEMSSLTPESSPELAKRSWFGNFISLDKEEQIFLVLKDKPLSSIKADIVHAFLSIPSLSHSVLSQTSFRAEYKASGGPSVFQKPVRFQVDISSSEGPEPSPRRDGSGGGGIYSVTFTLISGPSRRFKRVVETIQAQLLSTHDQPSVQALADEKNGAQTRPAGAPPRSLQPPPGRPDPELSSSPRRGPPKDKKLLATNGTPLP
Description: as §1

[17] = target: T16, JNK2 (Homo sapiens, UniProt P45984)
T16 construct: purchased Reaction Biology
Description: as §1

[18] = target: T17, TYK2 (Homo sapiens, UniProt P29597)
T17 construct: purchased Reaction Biology
Description: as §1

[19] = DOH (50 µM), Data 1 and Data 2, read-out: % Enzyme Activity (relative to DMSO controls)

T3 sequence (Q14680 whole entry): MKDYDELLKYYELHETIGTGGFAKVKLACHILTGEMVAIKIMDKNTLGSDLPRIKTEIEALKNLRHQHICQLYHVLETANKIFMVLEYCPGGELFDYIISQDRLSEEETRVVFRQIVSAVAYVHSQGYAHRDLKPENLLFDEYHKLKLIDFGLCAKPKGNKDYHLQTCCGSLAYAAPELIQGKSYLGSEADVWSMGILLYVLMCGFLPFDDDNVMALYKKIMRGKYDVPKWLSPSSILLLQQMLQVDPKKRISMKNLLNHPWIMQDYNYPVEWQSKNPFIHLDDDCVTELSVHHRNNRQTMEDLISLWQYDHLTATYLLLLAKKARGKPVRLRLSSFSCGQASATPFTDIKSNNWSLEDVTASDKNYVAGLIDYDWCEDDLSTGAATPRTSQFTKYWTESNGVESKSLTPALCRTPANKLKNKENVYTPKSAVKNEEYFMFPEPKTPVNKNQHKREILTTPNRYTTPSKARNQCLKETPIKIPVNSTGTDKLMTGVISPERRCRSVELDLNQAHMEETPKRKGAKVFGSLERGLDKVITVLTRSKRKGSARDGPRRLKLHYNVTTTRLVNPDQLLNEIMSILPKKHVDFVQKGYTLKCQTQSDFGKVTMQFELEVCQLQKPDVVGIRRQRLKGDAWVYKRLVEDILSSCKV
T10 sequence (Q96GD4 whole entry): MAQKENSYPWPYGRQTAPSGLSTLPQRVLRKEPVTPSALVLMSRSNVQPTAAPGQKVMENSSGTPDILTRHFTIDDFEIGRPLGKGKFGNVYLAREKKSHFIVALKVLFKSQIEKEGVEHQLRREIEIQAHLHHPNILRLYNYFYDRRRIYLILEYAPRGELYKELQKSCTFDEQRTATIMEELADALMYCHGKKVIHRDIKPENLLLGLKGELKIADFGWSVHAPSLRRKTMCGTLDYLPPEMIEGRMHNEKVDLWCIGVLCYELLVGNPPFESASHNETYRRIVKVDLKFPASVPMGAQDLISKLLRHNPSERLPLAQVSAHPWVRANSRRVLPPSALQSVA
T7 sequence (P10721 26-976 D816H): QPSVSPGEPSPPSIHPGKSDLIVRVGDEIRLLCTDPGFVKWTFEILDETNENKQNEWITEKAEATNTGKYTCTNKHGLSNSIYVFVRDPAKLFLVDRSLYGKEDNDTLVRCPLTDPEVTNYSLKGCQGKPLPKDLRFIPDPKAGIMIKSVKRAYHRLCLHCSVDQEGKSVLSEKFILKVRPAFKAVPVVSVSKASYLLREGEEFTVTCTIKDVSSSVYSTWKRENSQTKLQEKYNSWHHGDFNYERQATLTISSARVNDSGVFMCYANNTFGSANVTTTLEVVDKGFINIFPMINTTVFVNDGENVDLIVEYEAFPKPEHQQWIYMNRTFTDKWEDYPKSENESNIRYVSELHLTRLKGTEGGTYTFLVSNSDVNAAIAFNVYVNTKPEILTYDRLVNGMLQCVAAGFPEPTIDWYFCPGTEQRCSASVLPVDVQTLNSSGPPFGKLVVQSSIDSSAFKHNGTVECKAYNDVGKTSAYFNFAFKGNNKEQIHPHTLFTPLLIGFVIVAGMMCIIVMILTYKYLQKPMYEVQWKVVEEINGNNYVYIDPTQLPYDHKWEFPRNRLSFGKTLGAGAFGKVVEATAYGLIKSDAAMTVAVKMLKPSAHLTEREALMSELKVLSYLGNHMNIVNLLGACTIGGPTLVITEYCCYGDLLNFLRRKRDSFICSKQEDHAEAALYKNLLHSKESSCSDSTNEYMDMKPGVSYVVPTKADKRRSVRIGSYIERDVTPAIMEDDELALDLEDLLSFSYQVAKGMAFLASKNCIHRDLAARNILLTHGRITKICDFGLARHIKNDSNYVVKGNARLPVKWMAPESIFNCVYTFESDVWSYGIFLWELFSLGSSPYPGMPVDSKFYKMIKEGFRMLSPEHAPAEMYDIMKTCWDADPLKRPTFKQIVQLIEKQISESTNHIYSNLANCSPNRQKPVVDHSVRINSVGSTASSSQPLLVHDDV
T13 sequence (P09769 whole entry): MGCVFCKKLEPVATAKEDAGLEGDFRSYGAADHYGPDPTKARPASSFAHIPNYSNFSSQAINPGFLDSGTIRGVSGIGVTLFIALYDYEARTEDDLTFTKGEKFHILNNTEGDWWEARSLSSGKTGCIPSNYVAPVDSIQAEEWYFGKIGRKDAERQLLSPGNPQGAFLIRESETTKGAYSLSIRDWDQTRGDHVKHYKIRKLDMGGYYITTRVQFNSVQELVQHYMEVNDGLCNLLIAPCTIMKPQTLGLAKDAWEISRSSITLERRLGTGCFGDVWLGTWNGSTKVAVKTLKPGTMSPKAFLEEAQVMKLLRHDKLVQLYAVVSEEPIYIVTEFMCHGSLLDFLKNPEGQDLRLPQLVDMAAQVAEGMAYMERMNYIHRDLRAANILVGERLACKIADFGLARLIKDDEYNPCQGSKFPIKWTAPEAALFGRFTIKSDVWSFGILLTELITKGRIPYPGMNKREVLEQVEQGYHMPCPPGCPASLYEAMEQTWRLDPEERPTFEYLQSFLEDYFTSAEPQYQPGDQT
T8 sequence (Q8IU85 whole entry): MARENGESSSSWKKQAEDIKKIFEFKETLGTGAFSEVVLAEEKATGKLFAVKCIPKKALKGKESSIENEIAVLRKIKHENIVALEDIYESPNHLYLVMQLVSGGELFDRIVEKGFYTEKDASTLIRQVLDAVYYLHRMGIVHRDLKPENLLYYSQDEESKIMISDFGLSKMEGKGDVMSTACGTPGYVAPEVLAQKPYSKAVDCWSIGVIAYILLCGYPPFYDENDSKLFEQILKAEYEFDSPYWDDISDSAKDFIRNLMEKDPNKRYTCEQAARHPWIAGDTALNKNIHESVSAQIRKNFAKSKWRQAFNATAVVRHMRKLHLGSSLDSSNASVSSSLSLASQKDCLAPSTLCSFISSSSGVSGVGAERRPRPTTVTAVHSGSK
T11 sequence (Q9HAZ1 whole entry): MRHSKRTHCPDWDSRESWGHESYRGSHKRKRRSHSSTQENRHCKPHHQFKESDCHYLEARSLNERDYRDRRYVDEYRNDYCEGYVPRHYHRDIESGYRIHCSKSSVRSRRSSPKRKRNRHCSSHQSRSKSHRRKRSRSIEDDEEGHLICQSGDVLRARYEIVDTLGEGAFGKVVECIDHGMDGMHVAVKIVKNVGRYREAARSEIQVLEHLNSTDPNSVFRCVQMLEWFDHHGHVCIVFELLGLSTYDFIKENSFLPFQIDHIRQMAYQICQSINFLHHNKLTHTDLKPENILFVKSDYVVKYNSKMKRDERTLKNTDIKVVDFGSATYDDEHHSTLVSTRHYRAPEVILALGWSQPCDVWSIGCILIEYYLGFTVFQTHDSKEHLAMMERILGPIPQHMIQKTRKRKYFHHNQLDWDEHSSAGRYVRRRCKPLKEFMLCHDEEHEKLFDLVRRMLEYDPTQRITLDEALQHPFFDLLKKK
T12 sequence (Q00526 whole entry): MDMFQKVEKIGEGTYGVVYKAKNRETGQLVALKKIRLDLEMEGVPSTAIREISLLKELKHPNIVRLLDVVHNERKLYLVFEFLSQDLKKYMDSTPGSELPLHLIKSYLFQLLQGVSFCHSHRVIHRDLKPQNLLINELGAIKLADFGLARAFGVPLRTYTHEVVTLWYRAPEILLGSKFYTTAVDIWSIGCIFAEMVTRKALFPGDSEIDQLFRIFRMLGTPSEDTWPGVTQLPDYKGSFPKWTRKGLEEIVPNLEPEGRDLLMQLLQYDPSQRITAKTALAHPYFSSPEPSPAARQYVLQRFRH
T12 sequence (P24864 whole entry partner): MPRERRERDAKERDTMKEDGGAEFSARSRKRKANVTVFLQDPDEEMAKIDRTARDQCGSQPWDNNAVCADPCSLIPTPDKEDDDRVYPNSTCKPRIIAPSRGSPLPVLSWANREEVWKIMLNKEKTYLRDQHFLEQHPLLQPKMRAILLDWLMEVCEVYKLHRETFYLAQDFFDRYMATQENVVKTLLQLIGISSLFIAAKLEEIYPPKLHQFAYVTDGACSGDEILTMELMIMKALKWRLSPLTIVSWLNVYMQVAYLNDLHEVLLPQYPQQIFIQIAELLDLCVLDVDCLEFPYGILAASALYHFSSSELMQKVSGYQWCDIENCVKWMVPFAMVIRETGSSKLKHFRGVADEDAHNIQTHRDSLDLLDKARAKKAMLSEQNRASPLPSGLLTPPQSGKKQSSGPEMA
T5 sequence (P51617 whole entry): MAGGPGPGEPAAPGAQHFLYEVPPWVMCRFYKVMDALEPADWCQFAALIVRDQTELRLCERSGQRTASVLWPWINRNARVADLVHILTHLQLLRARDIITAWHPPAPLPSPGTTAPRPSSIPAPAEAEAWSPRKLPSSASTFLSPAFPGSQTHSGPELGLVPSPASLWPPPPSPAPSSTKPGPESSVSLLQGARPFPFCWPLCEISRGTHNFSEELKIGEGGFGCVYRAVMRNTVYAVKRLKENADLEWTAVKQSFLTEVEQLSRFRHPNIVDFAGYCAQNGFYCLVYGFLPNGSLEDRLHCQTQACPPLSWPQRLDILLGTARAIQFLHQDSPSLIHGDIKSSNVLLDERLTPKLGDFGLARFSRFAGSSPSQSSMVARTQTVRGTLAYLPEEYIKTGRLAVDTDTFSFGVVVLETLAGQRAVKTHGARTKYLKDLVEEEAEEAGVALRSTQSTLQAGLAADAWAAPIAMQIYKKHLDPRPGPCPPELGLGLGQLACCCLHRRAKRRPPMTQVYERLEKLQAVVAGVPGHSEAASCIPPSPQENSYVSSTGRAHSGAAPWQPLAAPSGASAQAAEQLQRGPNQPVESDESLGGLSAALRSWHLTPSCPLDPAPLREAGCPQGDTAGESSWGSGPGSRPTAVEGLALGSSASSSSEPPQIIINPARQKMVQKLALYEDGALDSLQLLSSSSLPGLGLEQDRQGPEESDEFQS

With CC1(C)Oc2cc3oc(=O)ccc3cc2C[C@@H]1O [DOH, decursinol] the inhibition at 50 µM ([1]; DOH 50 µM) was 36.5%, the “% Enzyme Activity (relative to DMSO controls)” value ([1]; DOH (50 µM), Data 1 and Data 2) was 61.2% and the remaining activity at 50 µM [1, 19] was 65.9%. The inhibition at 50 µM ([2]; DOH 50 µM) was 26.8%, the “% Enzyme Activity (relative to DMSO controls)” value ([2]; DOH (50 µM), Data 1 and Data 2) was 73.0% and the remaining activity at 50 µM [2, 19] was 73.4%. The inhibition at 50 µM ([3]; DOH 50 µM) was 35.2%, the “% Enzyme Activity (relative to DMSO controls)” value ([3]; DOH (50 µM), Data 1 and Data 2) was 64.6% and the remaining activity at 50 µM [3, 19] was 65%. The inhibition at 50 µM ([4]; DOH 50 µM) was 33%, the “% Enzyme Activity (relative to DMSO controls)” value ([4]; DOH (50 µM), Data 1 and Data 2) was 66.2% and the remaining activity at 50 µM [4, 19] was 67.8%. For the same compound, the inhibition at 50 µM ([5]; DOH 50 µM) was 38.5%, the “% Enzyme Activity (relative to DMSO controls)” value ([5]; DOH (50 µM), Data 1 and Data 2) was 58.4% and the remaining activity at 50 µM [5, 19] was 64.5%. For the same compound, the inhibition at 50 µM ([6]; DOH 50 µM) was 25.7%, the “% Enzyme Activity (relative to DMSO controls)” value ([6]; DOH (50 µM), Data 1 and Data 2) was 73.9% and the remaining activity at 50 µM [6, 19] was 74.8%. The inhibition at 50 µM ([7]; DOH 50 µM) was 25.5%, the “% Enzyme Activity (relative to DMSO controls)” value ([7]; DOH (50 µM), Data 1 and Data 2) was 66.8% and the remaining activity at 50 µM [7, 19] was 82.2%. The inhibition at 50 µM ([8]; DOH 50 µM) was 27.1%, the “% Enzyme Activity (relative to DMSO controls)” value ([8]; DOH (50 µM), Data 1 and Data 2) was 70.6% and the remaining activity at 50 µM [8, 19] was 75.3%. The inhibition at 50 µM ([9]; DOH 50 µM) was 30.1%, the “% Enzyme Activity (relative to DMSO controls)” value ([9]; DOH (50 µM), Data 1 and Data 2) was 69.2% and the remaining activity at 50 µM [9, 19] was 70.5%. For the same compound, the inhibition at 50 µM ([10]; DOH 50 µM) was 36.2%, the “% Enzyme Activity (relative to DMSO controls)” value ([10]; DOH (50 µM), Data 1 and Data 2) was 63.7% and the remaining activity at 50 µM [10, 19] was 64%. For the same compound, the “DOH % Inhibition” value ([11]; DOH 50 µM) was 27.6%, the “% Enzyme Activity (relative to DMSO controls)” value ([11]; DOH (50 µM), Data 1 and Data 2) was 72.6% and 72.4% and the inhibition at 50 µM ([12]; DOH 50 µM) was 25.7%. The “% Enzyme Activity (relative to DMSO controls)” value ([12]; DOH (50 µM), Data 1 and Data 2) was 74.0%, the remaining activity at 50 µM [12, 19] was 74.8% and the inhibition at 50 µM ([13]; DOH 50 µM) was 30.3%. The “% Enzyme Activity (relative to DMSO controls)” value ([13]; DOH (50 µM), Data 1 and Data 2) was 69.4%, the remaining activity at 50 µM [13, 19] was 70% and the inhibition at 50 µM ([14]; DOH 50 µM) was 34.8%. For the same compound, the “% Enzyme Activity (relative to DMSO controls)” value ([14]; DOH (50 µM), Data 1 and Data 2) was 64.8%, the remaining activity at 50 µM [14, 19] was 65.6% and the inhibition at 50 µM ([15]; DOH 50 µM) was 27.1%. The remaining activity at 50 µM [15, 19] was 72.9%, the inhibition at 50 µM ([16]; DOH 50 µM) was 29.7% and the “% Enzyme Activity (relative to DMSO controls)” value ([16]; DOH (50 µM), Data 1 and Data 2) was 69.5%. The remaining activity at 50 µM [16, 19] was 71.1%, the inhibition at 50 µM ([17]; DOH 50 µM) was 29% and the “% Enzyme Activity (relative to DMSO controls)” value ([17]; DOH (50 µM), Data 1 and Data 2) was 70.1%. For the same compound, the remaining activity at 50 µM [17, 19] was 72%, the inhibition at 50 µM ([18]; DOH 50 µM) was 32.4% and the “% Enzyme Activity (relative to DMSO controls)” value ([18]; DOH (50 µM), Data 1 and Data 2) was 62.8%. For the same compound, the remaining activity at 50 µM [18, 19] was 72.3%.
